From paper PMC5218480 (PLoS ONE, 2017)

Tested on: MV-4-11 cells
Test: Gene expression microarray analysis (Affymetrix PrimeView) and GSEA
Assay type: cell-based, human
Parameters: RFU PODN (11730768_x_at) / Fold change /veh PODN (11730768_x_at) / RFU LINC00158 (11744669_a_at) / Fold change /veh LINC00158 (11744669_a_at) / RFU DUSP10 (11751237_a_at) / Fold change /veh DUSP10 (11751237_a_at) / RFU ID3 (11757404_x_at) / Fold change /veh ID3 (11757404_x_at) / RFU PLEKHG5 (11737974_s_at) / Fold change /veh PLEKHG5 (11737974_s_at) / RFU LRRC4B (11730491_at) / Fold change /veh LRRC4B (11730491_at) / RFU GIMAP4 (11747438_a_at) / Fold change /veh GIMAP4 (11747438_a_at) / RFU KRT8 (11758183_x_at) / Fold change /veh KRT8 (11758183_x_at) / RFU CNN1 (11734310_a_at) / Fold change /veh CNN1 (11734310_a_at) / RFU VPS37D (11726825_at) / Fold change /veh VPS37D (11726825_at) / RFU C10orf10 (11716522_x_at) / Fold change /veh C10orf10 (11716522_x_at) / RFU KIR2DL2 /// KIR2DL4 /// KIR2DL5A /// KIR2DL5B /// KIR2DS1 /// KIR2DS2 /// KIR2DS3 /// KIR2DS4 /// KIR3DL3 /// KIR3DL3 /// KIR3DS1 (11738374_at) / Fold change /veh KIR2DL2 /// KIR2DL4 /// KIR2DL5A /// KIR2DL5B /// KIR2DS1 /// KIR2DS2 /// KIR2DS3 /// KIR2DS4 /// KIR3DL3 /// KIR3DL3 /// KIR3DS1 (11738374_at) / RFU C1QL1 (11718748_at) / Fold change /veh C1QL1 (11718748_at) / RFU TMPRSS4 (11747572_a_at) / Fold change /veh TMPRSS4 (11747572_a_at) / RFU HAMP (11756126_x_at) / Fold change /veh HAMP (11756126_x_at) / RFU RNFT2 (11725882_a_at) / Fold change /veh RNFT2 (11725882_a_at) / RFU NR4A2 (11747474_a_at) / Fold change /veh NR4A2 (11747474_a_at) / RFU ABCC12 (11746883_a_at) / Fold change /veh ABCC12 (11746883_a_at) / RFU TMEM136 (11760407_x_at) / Fold change /veh TMEM136 (11760407_x_at) / RFU CLDN22 /// WWC2 (11732394_at) / Fold change /veh CLDN22 /// WWC2 (11732394_at) / RFU HLA-DPB1 (11760878_x_at) / Fold change /veh HLA-DPB1 (11760878_x_at) / RFU SPINT1 (11716480_a_at) / Fold change /veh SPINT1 (11716480_a_at) / RFU GAP43 (11754022_s_at) / Fold change /veh GAP43 (11754022_s_at) / RFU A4GNT (11735810_at) / Fold change /veh A4GNT (11735810_at) / RFU PRB3 (11715151_x_at) / Fold change /veh PRB3 (11715151_x_at) / RFU TUBB4B (11761932_at) / Fold change /veh TUBB4B (11761932_at) / RFU CAPN14 (11732068_a_at) / Fold change /veh CAPN14 (11732068_a_at) / RFU TMCC2 (11721928_a_at) / Fold change /veh TMCC2 (11721928_a_at) / RFU IRGQ (11745062_a_at) / Fold change /veh IRGQ (11745062_a_at) / RFU FAM174B (11720279_a_at) / Fold change /veh FAM174B (11720279_a_at) / RFU TMPRSS4 (11748680_a_at) / Fold change /veh TMPRSS4 (11748680_a_at) / RFU FAM212B (11763350_a_at) / Fold change /veh FAM212B (11763350_a_at) / RFU PLEKHG5 (11743358_a_at) / Fold change /veh PLEKHG5 (11743358_a_at) / RFU ZSCAN30 (11745921_a_at) / Fold change /veh ZSCAN30 (11745921_a_at) / RFU CMKLR1 (11741424_a_at) / Fold change /veh CMKLR1 (11741424_a_at) / RFU LOC101060620 /// MAPK8IP1 (11723275_at) / Fold change /veh LOC101060620 /// MAPK8IP1 (11723275_at) / RFU SPTSSB (11747773_x_at) / Fold change /veh SPTSSB (11747773_x_at) / RFU PRSS12 (11739890_at) / Fold change /veh PRSS12 (11739890_at) / RFU BIN1 (11741810_x_at) / Fold change /veh BIN1 (11741810_x_at) / RFU WNT11 (11732464_a_at) / Fold change /veh WNT11 (11732464_a_at) / RFU C10orf10 (11716521_a_at) / Fold change /veh C10orf10 (11716521_a_at) / RFU C5orf56 (11738089_at) / Fold change /veh C5orf56 (11738089_at) / RFU CYB561 (11721691_x_at) / Fold change /veh CYB561 (11721691_x_at) / RFU ANKRD19P (11752326_a_at) / Fold change /veh ANKRD19P (11752326_a_at) / RFU OR2T12 /// OR2T33 /// OR2T8 (11738714_s_at) / Fold change /veh OR2T12 /// OR2T33 /// OR2T8 (11738714_s_at) / RFU VCAN (11748164_a_at) / Fold change /veh VCAN (11748164_a_at) / RFU JSRP1 (11732532_at) / Fold change /veh JSRP1 (11732532_at) / RFU KRTAP10-11 (11738290_x_at) / Fold change /veh KRTAP10-11 (11738290_x_at) / RFU MYO3A (11730013_a_at) / Fold change /veh MYO3A (11730013_a_at) / RFU EBF3 (11725865_a_at) / Fold change /veh EBF3 (11725865_a_at) / RFU CAMK2N1 (11719241_x_at) / Fold change /veh CAMK2N1 (11719241_x_at) / RFU C5orf56 (11738088_a_at) / Fold change /veh C5orf56 (11738088_a_at) / RFU OLFML3 (11715873_a_at) / Fold change /veh OLFML3 (11715873_a_at) / RFU LOC100653217 /// NTM (11731650_a_at) / Fold change /veh LOC100653217 /// NTM (11731650_a_at) / RFU MAPK11 (11762145_a_at) / Fold change /veh MAPK11 (11762145_a_at) / RFU FIZ1 (11724087_x_at) / Fold change /veh FIZ1 (11724087_x_at) / RFU OASL (11726364_x_at) / Fold change /veh OASL (11726364_x_at) / RFU SOX15 (11748057_x_at) / Fold change /veh SOX15 (11748057_x_at) / RFU CD79A (11719716_a_at) / Fold change /veh CD79A (11719716_a_at) / RFU HIST1H1D (11736915_at) / Fold change /veh HIST1H1D (11736915_at) / RFU CASKIN2 (11723855_a_at) / Fold change /veh CASKIN2 (11723855_a_at) / RFU LOC730098 (11760151_x_at) / Fold change /veh LOC730098 (11760151_x_at) / RFU OR4N2 (11742367_at) / Fold change /veh OR4N2 (11742367_at) / RFU PRRT2 (11749266_a_at) / Fold change /veh PRRT2 (11749266_a_at) / RFU SNX32 (11753110_a_at) / Fold change /veh SNX32 (11753110_a_at) / RFU CDHR5 (11726645_a_at) / Fold change /veh CDHR5 (11726645_a_at) / RFU RCAN1 (11760418_a_at) / Fold change /veh RCAN1 (11760418_a_at) / RFU FAM167A (11723789_a_at) / Fold change /veh FAM167A (11723789_a_at) / RFU FAM26E (11764081_at) / Fold change /veh FAM26E (11764081_at) / RFU ISYNA1 (11749810_s_at) / Fold change /veh ISYNA1 (11749810_s_at) / RFU ACY1 (11761880_at) / Fold change /veh ACY1 (11761880_at) / RFU 11764098_at / Fold change /veh 11764098_at / RFU SAMD14 (11745864_x_at) / Fold change /veh SAMD14 (11745864_x_at) / RFU NPB (11741838_a_at) / Fold change /veh NPB (11741838_a_at) / RFU TMPRSS6 (11731388_a_at) / Fold change /veh TMPRSS6 (11731388_a_at) / RFU KRTAP10-2 (11738614_at) / Fold change /veh KRTAP10-2 (11738614_at) / RFU ARHGAP8 /// PRR5-ARHGAP8 (11727945_x_at) / Fold change /veh ARHGAP8 /// PRR5-ARHGAP8 (11727945_x_at) / RFU KRTAP5-7 /// NADSYN1 (11734609_at) / Fold change /veh KRTAP5-7 /// NADSYN1 (11734609_at) / RFU RASL12 (11751679_a_at) / Fold change /veh RASL12 (11751679_a_at) / RFU CDKN2B (11736163_a_at) / Fold change /veh CDKN2B (11736163_a_at) / RFU PRF1 (11729649_at) / Fold change /veh PRF1 (11729649_at) / RFU, ZNF638 /// ZNF638-IT1 / Fold change vs veh, ZNF638 /// ZNF638-IT1 / RFU, PANK3 / Fold change vs veh, PANK3 / RFU, SH3YL1 / Fold change vs veh, SH3YL1 / RFU, ZEB2 / Fold change vs veh, ZEB2 / RFU, NRIP1 / Fold change vs veh, NRIP1 / RFU, PTTG1IP / Fold change vs veh, PTTG1IP / RFU, CAPN2 / Fold change vs veh, CAPN2 / RFU, MED14 / Fold change vs veh, MED14 / RFU, SNORA58 / Fold change vs veh, SNORA58 / RFU, C1orf63 / Fold change vs veh, C1orf63 / RFU, LRRFIP1 / Fold change vs veh, LRRFIP1 / RFU, NDUFAF7 / Fold change vs veh, NDUFAF7 / RFU, SLC12A2 / Fold change vs veh, SLC12A2 / RFU, IBTK / Fold change vs veh, IBTK / RFU, ESF1 / Fold change vs veh, ESF1 / Fold change vs veh, TMEM50B / RFU, TAOK1 / Fold change vs veh, TAOK1 / RFU, ACBD3 / Fold change vs veh, ACBD3 / RFU, TMA16 / Fold change vs veh, TMA16 / RFU, RWDD3 / Fold change vs veh, RWDD3 / RFU, BCAT1 / Fold change vs veh, BCAT1 / RFU, EDEM3 / Fold change vs veh, EDEM3 / RFU, TMEM33 / Fold change vs veh, TMEM33 / RFU, WDR75 / Fold change vs veh, WDR75 / RFU, AHCTF1 / Fold change vs veh, AHCTF1 / RFU, TFRC / Fold change vs veh, TFRC / RFU, ZDHHC17 / Fold change vs veh, ZDHHC17 / RFU, NOM1 / Fold change vs veh, NOM1 / RFU, ARL8B / Fold change vs veh, ARL8B / RFU, ZBTB11 / Fold change vs veh, ZBTB11 / RFU, TAMM41 / Fold change vs veh, TAMM41 / RFU, KIAA1704 /// LOC100996395 / Fold change vs veh, KIAA1704 /// LOC100996395 / RFU, ING1 / Fold change vs veh, ING1 / RFU, TRMT61B / Fold change vs veh, TRMT61B / RFU, FUBP3 / Fold change vs veh, FUBP3 / RFU, TP53 / Fold change vs veh, TP53 / RFU, TNKS2 / Fold change vs veh, TNKS2 / RFU, ZFP14 / Fold change vs veh, ZFP14 / RFU, ACTR2 / Fold change vs veh, ACTR2 / RFU, PPP3R1 / Fold change vs veh, PPP3R1 / RFU, PIK3R1 / Fold change vs veh, PIK3R1 / RFU, HNRNPA1 / Fold change vs veh, HNRNPA1 / RFU, RNF170 / Fold change vs veh, RNF170 / RFU, ZNF28 / Fold change vs veh, ZNF28 / RFU, RNGTT / Fold change vs veh, RNGTT / RFU, OGT / Fold change vs veh, OGT / RFU, BRD1 / Fold change vs veh, BRD1 / RFU, MARS / Fold change vs veh, MARS / RFU, ZNF655 / Fold change vs veh, ZNF655 / RFU, FAHD1 / Fold change vs veh, FAHD1 / RFU, BDP1 / Fold change vs veh, BDP1 / RFU, LRRCC1 / Fold change vs veh, LRRCC1 / RFU, ARID1A / Fold change vs veh, ARID1A / RFU, ZNF146 / Fold change vs veh, ZNF146 / RFU, ZNF330 / Fold change vs veh, ZNF330 / RFU, GPN3 / Fold change vs veh, GPN3 / RFU, C9orf123 / Fold change vs veh, C9orf123 / RFU, N4BP2L2 / Fold change vs veh, N4BP2L2 / RFU, ARFIP1 / Fold change vs veh, ARFIP1 / RFU, FAM179B / Fold change vs veh, FAM179B / RFU, BCL10 / Fold change vs veh, BCL10 / RFU, UHRF1BP1L / Fold change vs veh, UHRF1BP1L / RFU, BET1 / Fold change vs veh, BET1 / RFU, CNOT2 / Fold change vs veh, CNOT2 / RFU, ZNF268 / Fold change vs veh, ZNF268 / Fold change vs veh, ZNF507 / RFU, DGCR2 / Fold change vs veh, DGCR2 / RFU, WDSUB1 / Fold change vs veh, WDSUB1 / Fold change vs veh, HSP90B1 /// MIR3652 / RFU, ADSS / Fold change vs veh, ADSS / RFU, GK / Fold change vs veh, GK / RFU, ZNF148 / Fold change vs veh, ZNF148 / RFU, TAF9 / Fold change vs veh, TAF9 / RFU, SLC1A5 / Fold change vs veh, SLC1A5 / RFU, SLMO2 / Fold change vs veh, SLMO2 / RFU, ABCC4 / Fold change vs veh, ABCC4 / RFU, LOC101060439 /// RAP1B / Fold change vs veh, LOC101060439 /// RAP1B / RFU, RFX7 / Fold change vs veh, RFX7 / RFU, GTPBP10 / Fold change vs veh, GTPBP10 / RFU, CNEP1R1 / Fold change vs veh, CNEP1R1 / RFU, BIVM-ERCC5 /// ERCC5 / Fold change vs veh, BIVM-ERCC5 /// ERCC5 / RFU, ILF3 / Fold change vs veh, ILF3 / RFU 11762660_at / Fold change /veh 11762660_at / RFU VCAN (11757783_s_at) / Fold change /veh VCAN (11757783_s_at) / RFU DDX43 (11728927_at) / Fold change /veh DDX43 (11728927_at) / RFU KRT8 (11758188_x_at) / Fold change /veh KRT8 (11758188_x_at) / RFU NKD1 (11759106_at) / Fold change /veh NKD1 (11759106_at) / RFU SRD5A1 (11742802_a_at) / Fold change /veh SRD5A1 (11742802_a_at) / RFU TPSAB1 /// TPSB2 (11721975_s_at) / Fold change /veh TPSAB1 /// TPSB2 (11721975_s_at) / RFU GSTM3 (11746129_a_at) / Fold change /veh GSTM3 (11746129_a_at) / RFU IL23R (11737362_x_at) / Fold change /veh IL23R (11737362_x_at) / RFU TMEM51 (11727254_a_at) / Fold change /veh TMEM51 (11727254_a_at) / RFU PIWIL2 (11732686_x_at) / Fold change /veh PIWIL2 (11732686_x_at) / RFU ORM1 (11744905_x_at) / Fold change /veh ORM1 (11744905_x_at) / RFU CCDC152 (11743942_at) / Fold change /veh CCDC152 (11743942_at) / RFU ECM1 (11717891_a_at) / Fold change /veh ECM1 (11717891_a_at) / RFU IL23R (11748794_a_at) / Fold change /veh IL23R (11748794_a_at) / RFU TNFAIP8L3 (11732012_x_at) / Fold change /veh TNFAIP8L3 (11732012_x_at) / RFU MBOAT4 (11741988_at) / Fold change /veh MBOAT4 (11741988_at) / RFU 11764193_at / Fold change /veh 11764193_at / RFU TMEM53 (11763286_at) / Fold change /veh TMEM53 (11763286_at) / RFU MAGEB2 (11727129_at) / Fold change /veh MAGEB2 (11727129_at) / RFU TMEM200A (11744735_a_at) / Fold change /veh TMEM200A (11744735_a_at) / RFU CCDC152 (11751479_a_at) / Fold change /veh CCDC152 (11751479_a_at) / RFU FAM211A (11726209_a_at) / Fold change /veh FAM211A (11726209_a_at) / RFU RGS16 (11746705_a_at) / Fold change /veh RGS16 (11746705_a_at) / RFU VCAN (11755009_s_at) / Fold change /veh VCAN (11755009_s_at) / RFU RHOB (11743442_s_at) / Fold change /veh RHOB (11743442_s_at) / RFU RGS16 (11720943_a_at) / Fold change /veh RGS16 (11720943_a_at) / RFU RGS16 (11720944_at) / Fold change /veh RGS16 (11720944_at) / RFU, VPS4B / Fold change vs veh, VPS4B / RFU, CREB1 / Fold change vs veh, CREB1 / RFU, DNAJC13 / Fold change vs veh, DNAJC13 / RFU, GNAQ / Fold change vs veh, GNAQ / RFU, CDK5R1 / Fold change vs veh, CDK5R1 / RFU, ZRANB3 / Fold change vs veh, ZRANB3 / RFU, CUL4A / Fold change vs veh, CUL4A / RFU, CCNY / Fold change vs veh, CCNY / RFU, UFL1 / Fold change vs veh, UFL1 / RFU, COG3 / Fold change vs veh, COG3 / RFU, DIAPH2 / Fold change vs veh, DIAPH2 / RFU, SKA2 / Fold change vs veh, SKA2 / RFU, AFF3 / Fold change vs veh, AFF3 / RFU, LMF1 / Fold change vs veh, LMF1 / RFU, IPO11 / Fold change vs veh, IPO11 / RFU, DFFB / Fold change vs veh, DFFB / RFU, FOXP1 / Fold change vs veh, FOXP1 / RFU, CARD8 / Fold change vs veh, CARD8 / RFU, STRN3 / Fold change vs veh, STRN3 / RFU, ADK / Fold change vs veh, ADK / RFU, RASSF2 / Fold change vs veh, RASSF2 / RFU, WIPF1 / Fold change vs veh, WIPF1 / RFU, LARP1B / Fold change vs veh, LARP1B / RFU, RASA1 / Fold change vs veh, RASA1 / RFU, RB1 / Fold change vs veh, RB1 / RFU, PPFIA1 / Fold change vs veh, PPFIA1 / RFU, MAT2A / Fold change vs veh, MAT2A / RFU, CCT5 / Fold change vs veh, CCT5 / RFU, WDR92 / Fold change vs veh, WDR92 / RFU, CUX1 / Fold change vs veh, CUX1 / RFU, TTC7A / Fold change vs veh, TTC7A / RFU, TMEM135 / Fold change vs veh, TMEM135 / RFU, DEPTOR / Fold change vs veh, DEPTOR / RFU, CPM / Fold change vs veh, CPM / RFU, DNAJB6 / Fold change vs veh, DNAJB6 / RFU, CACNA2D3 / Fold change vs veh, CACNA2D3 / RFU, DTX4 / Fold change vs veh, DTX4 / RFU, TFCP2 / Fold change vs veh, TFCP2 / RFU, GMCL1 /// GMCL1P1 / Fold change vs veh, GMCL1 /// GMCL1P1 / RFU, AEBP2 / Fold change vs veh, AEBP2 / RFU, SNHG1 /// SNORD22 /// SNORD25 /// SNORD26 /// SNORD27 /// SNORD28 /// SNORD29 /// SNORD31 / Fold change vs veh, SNHG1 /// SNORD22 /// SNORD25 /// SNORD26 /// SNORD27 /// SNORD28 /// SNORD29 /// SNORD31 / Fold change (Aza/veh), C12orf56 (ProbeSet 11735607_a_at) / Fold change (ACY-1035/veh), C12orf56 (ProbeSet 11735607_a_at) / Fold change (Aza/veh), FGFR1OP (ProbeSet 11751329_s_at) / Fold change (ACY-1035/veh), FGFR1OP (ProbeSet 11751329_s_at) / Fold change (Aza/veh), VPS36 (ProbeSet 11739960_a_at) / Fold change (ACY-1035/veh), VPS36 (ProbeSet 11739960_a_at) / RFU SYPL1 (11715823_x_at) / Fold change /veh SYPL1 (11715823_x_at) / RFU IGFBP7 (11715501_s_at) / Fold change /veh IGFBP7 (11715501_s_at) / RFU REEP3 (11722064_at) / Fold change /veh REEP3 (11722064_at) / RFU IGLL1 (11728026_x_at) / Fold change /veh IGLL1 (11728026_x_at): dose or concentration left out as unconfirmed
Conditions: ProbeSet 11725901_x_at; LIST B

Q: How did the “Fold change vs veh, RWDD3” value turn out when `Nc1ncn([C@@H]2O[C@H](CO)[C@@H](O)[C@H]2O)c(=O)n1` [azacitidine] was run?
A: Its value is 0.96.
